# Where “and” joins values, the source holds several entries; their conditions need not be identical. Equal values may be shown once.
# Tests used:
# Assay type in all cases: cell-based
# MCF-10A = experiment: Peptide array-whole cell binding assay; details: non-tumorigenic cells; peptide conjugated to cellulose membrane (amino-PEG500); cells 75 × 10^3 cells/mL, 37 °C, 4 h; CyQUANT fluorescence relative to peptide 1; spots in duplicate
# Description: (§1) Peptide array on the cellulose membrane was used to evaluate the binding of each peptide to different cell lines. The amino functionalized cellulose membrane provided by Intavis is acid hardened providing high stability at pH range from 1–14, permitting its use in acidic or basic conditions while maintaining membrane integrity. The PEG linker on membrane surface functions as a hydrophilic spacer between the peptide and the solid surface (membrane) reducing background signal. Cell lines were carefully selected for screening peptides as our goal here is to screen peptides with high binding/uptake by the TNBC cells. […] EGFR is overexpressed by a number of TNBC cells such as MDA-MB-468 (obtained from primary tumor source) and MDA-MB-231 (from metastasis cancer tissue)[13],[14]. While other TNBC cells like MDA-MB-436 (obtained from metastasis cancer tissue) are known to express low levels of EGFR. Non-tumorigenic epithelial MCF10A and MCF12A cells derived from the breast tissue also express low levels of EGFR[14],[34]. We selected two TNBC cell lines with relatively high expression of EGFR expression (MDA-MB-468/231) and a TNBC cell line with low level of EGFR expression (MDA-MB-436) for the peptide array screening experiments. In addition, non- tumorigenic cell line, MCF-10A was used for comparison. These four cell lines were allowed to bind the membrane by seeding the cells on the membrane and the bound cells were labeled with a fluorescent dye CyQUANT.
# (§2) For the binding assay, the peptide array was incubated with the cells in sequential steps as described previously. Briefly peptide array membrane was dipped in ethanol for 30 s to remove any precipitation on it, followed by dipping in sterile PBS (pH 7.4) for another 30 min. The cells (75 × 10^3 cells/mL) were seeded directly on the membrane in a sterile plate and incubated at 37 °C for 4 h. The unbound cells were washed out with sterile PBS (pH 7.4). Thereafter the membrane was placed in a sealed bag and transferred to −80 °C freezer for 2 h. Subsequently it was defrosted at room temperature and treated with CyQUANT solution. The CyQUANT concentration was optimized based on the manufacturer’s protocol and preliminary experiments. Membrane was incubated at 37 °C for 30 min with the dye. After washing with sterile PBS and air drying using blow dryer, the membrane was scanned using Bio-rad chemidoc imager with image lab software. The settings were adjusted based on the excitation (465 nm) and emission (535 nm) wavelengths of CyQUANT dye. Epi Blue was selected for the light source (455–485 nm) and filter number 4 (blue filter, 518–546 nm) was employed. The fluorescence intensity of cancer cells read using chemidoc imager was normalized using the non-cancer cell fluorescence intensity. Eventually relative fluorescence was assessed to select peptides with high affinity to cancer cells and low or minimal binding to normal cells.
# MDA-MB-436 [1] = experiment: Peptide array-whole cell binding assay; details: peptide conjugated to cellulose membrane (amino-PEG500), no free C-terminus; cells 75 × 10^3 cells/mL, 37 °C, 4 h; CyQUANT fluorescence relative to peptide 1; spots in duplicate
# Description: as §1, §2
# MDA-MB-468 [2] = experiment: Peptide array-whole cell binding assay; details: peptide conjugated to cellulose membrane (amino-PEG500), no free C-terminus; cells 75 × 10^3 cells/mL, 37 °C, 4 h; CyQUANT fluorescence relative to peptide 1; spots in duplicate
# Description: as §1, §2
# MDA-MB-231 [3] = experiment: Peptide array-whole cell binding assay; details: peptide conjugated to cellulose membrane (amino-PEG500), no free C-terminus; cells 75 × 10^3 cells/mL, 37 °C, 4 h; CyQUANT fluorescence relative to peptide 1; spots in duplicate
# Description: as §1, §2
# MDA-MB-436 [4] = experiment: In vitro cellular uptake of FITC-labeled peptides by FACS; details: soluble FITC-β-alanine-labeled peptide 1 µM, 30 min, 37 °C, FBS free media, 10^5 or 10^6 cells/well, MFI of FITC positive cells, three independent experiments ± SD
# Description: (§3) Flow cytometry was employed to determine the cellular uptake of selected six peptides (1, 4, 22, 23, 26, and 27). As opposed to the membrane bound (conjugated) peptide in library screening, the peptides used here were soluble (or free) FITC-labeled peptides. Peptides were labeled with FITC in the N-terminal and a β-alanine residue was used as a spacer between the FITC and the peptide sequence. The same three TNBC cells lines (MDA-MB-468, MDA-MB-231 and MDA-MB-436) used for peptide array screening were used here as well. Peptides 1 and 4 were used as controls. […] Peptide 4 was included in this experiment to compare the uptake of this keratin 1 binding peptide with the EGFR binding peptides. Peptides 22, 23, 26, and 27 were identified as the best EGFR binding peptides from the library screening.
# (§4) Fluorescence-activated cell-sorting (FACS) analysis was used to check the uptake of the FITC-peptides. The stock solution for the FITC-peptides (100 μM) was prepared by dissolving the peptides in sterile water/10% DMSO. MDA-MB-231, MDA-MB-468 and MDA-MB-436 cells were seeded in 6-well plates with 10^6/10^5 cells/well containing 3 mL media and the plates were incubated at 37 °C overnight. The following day, the media was replaced with fresh FBS free media (1 mL) containing FITC-labeled peptide (1 µM), and further incubated at 37 °C for 30 min. Thereafter the media was removed and the cells were washed with cold PBS to remove any remaining peptide. Adequate trypsin was added to each well followed by 3–5 min incubation at 37 °C. Trypsin was immediately neutralized by adding media and the cell suspension was transferred into centrifuge tubes. The cells were separated and washed twice with FACS sheath fluid. The control cells were treated similarly but without peptide. Two wells were assigned for each peptide and each well sample was read twice in FACS machine. The experiment was repeated once. MFI represents the average of all wells for each peptide.
# MDA-MB-468 [5] = experiment: as above; details: soluble FITC-β-alanine-labeled peptide 1 µM, 30 min, 37 °C, FBS free media, 10^5 or 10^6 cells/well, MFI of FITC positive cells, three independent experiments ± SD
# Description: as §3, §4
# MDA-MB-231 [6] = experiment: as above; details: soluble FITC-β-alanine-labeled peptide 1 µM, 30 min, 37 °C, FBS free media, 10^5 or 10^6 cells/well, MFI of FITC positive cells, three independent experiments ± SD
# Description: as §3, §4
Substance,Relative Cell Adhesion MCF-10A (MCF-10A),Relative Cell Adhesion MDA-MB-436 (MDA-MB-436 [1]),Relative Cell Adhesion MDA-MB-468 (MDA-MB-468 [2]),Relative Cell Adhesion MDA-MB-231 (MDA-MB-231 [3]),Mean Fluorescence Intensity ± SD MDA-MB-436 (MDA-MB-436 [4]),Mean Fluorescence Intensity ± SD MDA-MB-468 (MDA-MB-468 [5]),Mean Fluorescence Intensity ± SD MDA-MB-231 (MDA-MB-231 [6])
AHWYGYTPQNVI [Peptide 6],1.1,1.0,1.2,1.3,,,
FHWYGYTPQNVI [Peptide 28],1.2,0.8,1.2,1.5,,,
HWYGYTPQNVI [Peptide 20],1.2,1.0,1.2,1.5,,,
Peptide 2: scrambled negative control sequence WQTNYIHPYVYG,1.0,1.1,1.1,1.2,,,
"Peptide 4: positive control peptide p160, VPWXEPAYQRFL, binds keratin 1 [reference compound]",1.2,1.1,1.1,1.3,305 ± 58,23741 and 23741 ± 3068,4791 ± 354
"WXEAAYQRFL [Peptide 5, positive control, peptide 18 from a previous study, WXEAAYQRFL, reference compound]",1.7,1.8,1.3,1.7,,,
WYGYTPQNVI [Peptide 21],1.2,1.0,1.4,1.9,,,
YAWYGYTPQNVI [Peptide 7],1.0,1.0,1.1,1.1,,,
YGPWYNHYITQV [Peptide 3],1.0,1.1,1.0,1.1,,,
YHAYGYTPQNVI [Peptide 8],0.9,0.9,0.8,1.0,,,
YHWAGYTPQNVI [Peptide 9],1.0,1.2,1.3,1.4,,,
YHWFGYTPQNVI [Peptide 29],1.1,1.1,1.2,1.7,,,
YHWYAYTPQNVI [Peptide 10],1.1,1.2,1.3,1.5,,,
YHWYGATPQNVI [Peptide 11],1.0,1.0,1.2,1.3,,,
YHWYGFTPQNVI [Peptide 30],1.0,0.9,1.3,1.5,,,
YHWYGYAPQNVI [Peptide 12],1.1,1.0,1.0,1.3,,,
YHWYGYTAQNVI [Peptide 13],1.1,1.1,1.3,1.5,,,
YHWYGYTPANVI [Peptide 14],1.2,1.2,1.4,1.7,,,
YHWYGYTPKNVI [Peptide 26],0.8,1.0,1.3,1.6,16 ± 18,6457 ± 557,1877 ± 67
YHWYGYTPQAVI [Peptide 15],1.1,0.9,1.2,1.6,,,
YHWYGYTPQDVI [Peptide 23],1.4,1.0,1.6,2.8,36 ± 14,4661 ± 883,1631 ± 110
YHWYGYTPQKVI [Peptide 27],1.0,1.0,1.2,1.8,21 ± 17,5248 ± 407,1683 ± 163
YHWYGYTPQN [Peptide 19],1.1,1.1,1.3,2.0,,,
YHWYGYTPQNAI [Peptide 16],1.2,1.0,1.1,1.4,,,
YHWYGYTPQNV [Peptide 18],1.2,1.3,1.4,1.9,,,
YHWYGYTPQNVA [Peptide 17],1.2,1.2,1.4,1.6,,,
YKWYGYTPQNVI [Peptide 24],1.0,1.0,1.1,1.4,,,
YRWYGYTPQNVI [Peptide 25],1.2,1.0,1.4,1.9,,,
